A melting point compilation (Tetko et al.; mined from patent text by program, amines drawn as free bases though some values may be those of a salt)

Compound | melting point
CN(C)c1ccc(N(c2ccccc2)C2(c3ccc(N(C)C)cc3)OC(=O)c3ccccc32)cc1 (stereo unspecified) | 163 to 166 °C
Nn1nc(-c2ccc(Cl)cc2)cc1OCCN1CCCCC1 | 119 °C
COc1ccc(C2(OC)OC2(C)C)cc1 (stereo unspecified) | 41 to 43 °C
CC(C)(C)c1nnc2ccc(Cl)nn12 | 150 to 152 °C
O=c1[nH]c(S)ncc1OC1CCCCO1 (stereo unspecified) | > 300 °C
CC(C)(O)CCCCC(C)(C)O | 87 °C
CC1(C)C(=O)Nc2cc3[nH]c(-c4ccccc4)nc3cc21 | 195 to 220 °C
Cc1cc(C2=NN(C(=O)NC3CC3)C(C)Cc3cc4c(cc32)OCO4)ccc1[N+](=O)[O-] (stereo unspecified) | 171 to 175 °C
Clc1ccc2[nH]c3c(c2c1)CCC1(C3)OCCO1 | 128 to 138 °C
CNC(=O)Nc1ccc(Oc2ccc3sncc3c2)cc1 | 178 °C
CC(=O)C1=CC(C)(C)C=CC1 | 27 to 30 °C
CC1(C)Sc2oc(S(N)(=O)=O)cc2C1=O | 167 to 169 °C
C[C@H](c1ccccc1)n1c(=O)c2c(Cl)cc(Cl)cc2n(Cc2ccccc2)c1=O | 93 to 97 °C
Cc1csc2c(=O)n(CCC(C(=O)NO)N(C)S(=O)(=O)c3ccc(Oc4ccccc4)cc3)c(=O)[nH]c12 (stereo unspecified) | 170 to 171 °C
O=C(OCc1ccccc1)C1Cc2ccsc2CN1Cc1ccccc1 (stereo unspecified) | 135 to 140 °C
CS(=O)CC(=NC1CCCCC1)c1ccccc1O (stereo unspecified) | 133 to 134 °C
COc1ccc2c(c1)C(CC(=O)O)=C(C)C2=Cc1ccc(SC)cc1 | 195 to 196 °C
CC(C)(C)c1nc2cc(N3CCSCC3)c([N+](=O)[O-])cc2s1 | 117 to 120 °C
Cn1cc(C(=O)NCc2ccc(Cl)cc2)c(=O)c2cc(CN3CCCOCC3)ccc21 | 178 to 179 °C
O=c1cc[nH]c2c(Sc3nc4ccccc4[nH]3)cccc12 | > 240 °C
O=C(O)C1(COc2ccc(Br)cc2)COC1 | 122 to 124 °C
CN(C)c1ccc(C2(c3ccc(N(C)C)cc3N(C)C)OC(=O)c3cc(N(C)C)ccc32)cc1 (stereo unspecified) | 182 to 185 °C
CC(C)(N)c1ccc(-c2nc(Nc3ccc(CCn4ccnc4)cc3)ncc2Cl)cc1F | 112 to 120 °C
CC(=O)N1CCN(C(=O)OC2C3=C(SCCS3)C(=O)N2c2ccc3ccc(Cl)nc3n2)CC1 (stereo unspecified) | 271 °C
COc1cc2c(c(-c3cc(Cl)ccc3Cl)c1)OC(CN)C2 (stereo unspecified) | 140 to 142 °C
O=C(O)C(=NO)c1cccs1 | 132 °C

Results, then the compound that gave them:

melting point | Compound
75 °C | CCOC(=O)c1c(NCCCN(C)C)c2ccc(C)nc2n(CC)c1=O
104 to 106 °C | O=C1CCc2ccc(OCCCCCl)cc2N1
149 to 151 °C | COc1ccc2oc(C(C)N(O)C(N)=O)cc2c1 (stereo unspecified)
36.5 to 38.5 °C | Cc1ccc(S(=O)(=O)CCCCCC(C)(C(=O)OC(C)(C)C)C(=O)OC(C)(C)C)cc1
59.9 to 63.9 °C | CCc1nn2ccccc2c1N(CCCF)C(=O)COC
240 to 243 °C | CCc1cn(C2CC(O)C(CNC(=O)C(C)Oc3ccc(Cl)cc3Cl)O2)c(=O)[nH]c1=O (mixture of isomers)
202 to 203 °C | Cc1ccccc1CNC(=O)c1cc(C)c([N+](=O)[O-])c(C)c1
49 to 50 °C | CC(C)N(CCCN1C(=O)C(=O)c2ccccc21)C(C)C
150 to 151 °C | CC(CCl)NC(=O)c1c(Cl)cccc1[Si](C)(C)C (stereo unspecified)
158 °C | COc1ccc(CN(C)CCCc2ccc(NC(=O)c3cccc4c(=O)c5cccc(F)c5[nH]c34)cc2)cc1OC
117 to 119 °C | CCOC(=O)C(Br)C(=O)Nc1ccc(Cl)cc1 (stereo unspecified)
173 °C | CCC(c1ccc2[nH]c(C(F)(F)F)nc2c1)n1ccnc1 (stereo unspecified)
136 to 138 °C | CCCc1nn(-c2ccc(C(F)(F)F)cn2)cc1CCCOc1c(CC(=O)O)cnn1C
140 °C | COCCOc1ccc2c(C(c3cccc(NC(=O)OCc4ccccc4)c3C)C(C)[N+](=O)[O-])c[nH]c2c1 (stereo unspecified)
105 to 107 °C | CCOC(=O)c1cc2cc(-c3ccc(C(C)=O)cc3)ccc2o1
